pEC50: −log10 of the molar value. Counter-ions that a name gives are not always drawn. Like-named read-outs stand apart in the source and are kept apart here.
Columns and labels:
IL-23p19 = assay: LPS induced IL23p19 in THP-1 cells (with IFNγ primed) assay; type: cell-based, Human; conditions: for pEC50: THP-1 cells, IFNγ primed, LPS 1 ug/mL, 18 hours, 10 pt, read-out: IL23-p19 ELISA, THP1-IFNy, LPS, 10 pt EC50
How it was run: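 Readout is secreted IL-23p19, quantified by chemiluminescent sandwich ELISA after 18 h LPS (1 ug/mL) stimulation of THP-1 cells that had been IFNγ-primed (50 ng/mL, ~18 h) and given compound 1 h beforehand at 37 °C. EC50 derived by curve fit; cytotoxicity tracked with Cell Titer Glo.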

IL-23 (p19/p40) = assay: IL23-p19 ELISA, Dendritic, LPS (compound screening using DC cells); type: cell-based, Human; conditions: for pEC50: PBMC-derived DC cells, IFNγ primed, LPS 1 μg/ml, 18 hours, 10 pt, read-out: IL23-p19 ELISA, Dendritic, LPS, 10 pt, EC50
How it was run: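 IL-23 in supernatants quantified by sandwich ELISA (anti-p19 capture, biotinylated anti-p40 detection, chemiluminescent readout) after 18 h LPS (1 μg/ml) stimulation. Cells were monocyte-derived DCs (GM-CSF/IL-4, 7 d), IFNγ-primed 24 h and given compound 1 h before LPS; viability by CellTiter Glo.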

| SMILES | pEC50 (IL-23p19; Homo sapiens, THP-1, 18 h) | pEC50 (IL-23 (p19/p40); Homo sapiens, 18 h) | further results |
| --- | --- | --- | --- |
| CCO[C@H]1C[C@@H](n2cc(NC(=O)c3csc(-c4cn[nH]c4)n3)c(C(N)=O)n2)C1 [II-70, N-(3-carbamoyl-1-((1s,3s)-3-ethoxycyclobutyl)-1H-pyrazol-4-yl)-2-(1H-pyrazol-4-yl)thiazole-4-carboxamide] | 5.73 | 5.99 |  |
| O=C(Nc1cn(C2CCOCC2)nc1-c1nccs1)c1ccc(-c2cn[nH]c2)o1 [Compound I-65, 5-(1H-pyrazol-4-yl)-N-(1-(tetrahydro-2H-pyran-4-yl)-3-(thiazol-2-yl)-1H-pyrazol-4-yl)furan-2-carboxamide] |  |  | pEC50 (IL-23p19): 7.27; pEC50 (IL-23 (p19/p40)): 6.70 |
| COCCn1cc(NC(=O)c2ccc(-c3c[nH]nc3C)o2)c(-c2ccccn2)n1 [Compound I-6, N-(1-(2-methoxyethyl)-3-(pyridin-2-yl)-1H-pyrazol-4-yl)-5-(3-methyl-1H-pyrazol-4-yl)furan-2-carboxamide formic acid] | 6.58 |  | pEC50 (IL-23 (p19/p40); formic acid): 6.00 |
| CCO[C@H]1C[C@@H](n2cc(NC(=O)c3csc(-c4cnn(COP(=O)(O)O)c4)n3)c(-c3ccccn3)n2)C1 [II-80, (4-(4-((1-((1,3-cis)-3-ethoxycyclobutyl)-3-(pyridin-2-yl)-1H-pyrazol-4-yl)carbamoyl)thiazol-2-yl)-1H-pyrazol-1-yl)methyl phosphate bis-ammonium salt] |  |  | pEC50 (IL-23p19; phosphate bis-ammonium salt): 7.31; pEC50 (IL-23 (p19/p40); phosphate bis-ammonium salt): 6.61 |
| CCO[C@H]1C[C@@H](n2cc(NC(=O)c3ccc(-c4cn[nH]c4)o3)c(-c3ccc(F)cn3)n2)C1 [Compound I-138, N-(1-((1s,3s)-3-ethoxycyclobutyl)-3-(5-fluoropyridin-2-yl)-1H-pyrazol-4-yl)-5-(1H-pyrazol-4-yl)furan-2-carboxamide formate] | 6.03 | 6.16 |  |
| Cn1cc(-c2ccc(C(=O)Nc3cn(C)nc3-c3ccccn3)o2)cn1 [Compound I-69, 5-(1-Methyl-1H-pyrazol-4-yl)-N-{1-methyl-3-(pyridine-2-yl)-1H-pyrazol-4-yl}furan-2-carboxamide, formate salt] | 5.90 | 6.49 |  |
| COCCn1cc(NC(=O)c2ccc(-c3cnn(COP(=O)(O)OC(C)(C)C)c3)o2)c(-c2ccccn2)n1 [Compound I-11, tert-butyl ((4-(5-((1-(2-methoxyethyl)-3-(pyridin-2-yl)-1H-pyrazol-4-yl)carbamoyl)furan-2-yl)-1H-pyrazol-1-yl)methyl) hydrogen phosphate] | 5.31 | 5.28 |  |
| CCOCCn1cc(NC(=O)c2ccc(-c3cnn(C(=O)OC(C)(C)C)c3)o2)c(-c2ccccn2)n1 [Compound I-4, tert-butyl 4-(5-((1-(2-ethoxyethyl)-3-(pyridin-2-yl)-1H-pyrazol-4-yl)carbamoyl)furan-2-yl)-1H-pyrazole-1-carboxylate] | 6.15 | 6.21 |  |
| O=C(Nc1c[nH]nc1-c1ccccn1)c1csc(-c2cn[nH]c2)n1 [II-32, 2-(1H-pyrazol-4-yl)-N-(3-(pyridin-2-yl)-1H-pyrazol-4-yl)thiazole-4-carboxamide formic acid salt] | 6.44 | 6.72 |  |
| CCO[C@H]1C[C@@H](n2cc(NC(=O)c3csc(-c4cn[nH]c4F)n3)c(-c3ccccn3)n2)C1 [II-73, N-(1-((1s,3s)-3-ethoxycyclobutyl)-3-(pyridin-2-yl)-1H-pyrazol-4-yl)-2-(5-fluoro-1H-pyrazol-4-yl)thiazole-4-carboxamide] |  |  | pEC50 (IL-23p19): 6.43; pEC50 (IL-23 (p19/p40)): 6.46 |
| Cn1cc(-c2ccc(C(=O)Nc3cn(CC(C)(C)O)nc3-c3ccccn3)o2)cn1 [Compound I-1, N-(1-(2-hydroxy-2-methylpropyl)-3-(pyridin-2-yl)-1H-pyrazol-4-yl)-5-(1-methyl-1H-pyrazol-4-yl)furan-2-carboxamide 2,2,2-trifluoroacetate] |  |  | EC50 (IL-23p19; Homo sapiens, THP-1, 18 h, read-out: IL23-p19 ELISA, THP1-IFNy, LPS, 10 pt EC50 (μM)): 5.66 µM; EC50 (IL-23 (p19/p40); Homo sapiens, 18 h, read-out: IL23-p19 ELISA, Dendritic, LPS, 10 pt, EC50 (μM)): 3.73 µM |
| O=C(Nc1cn(C(F)F)nc1-c1ccccn1)c1csc(-c2c[nH]nc2C(F)(F)F)n1 [II-95, N-(1-(difluoromethyl)-3-(pyridin-2-yl)-1H-pyrazol-4-yl)-2-(3-(trifluoromethyl)-1H-pyrazol-4-yl)thiazole-4-carboxamide] | 5.65 | 5.21 |  |
| CCOCCn1cc(NC(=O)c2csc(-c3cn[nH]c3C(F)(F)F)n2)c(-c2ccccn2)n1 [II-19, N-(1-(2-ethoxyethyl)-3-(pyridin-2-yl)-1H-pyrazol-4-yl)-2-(5-(trifluoromethyl)-1H-pyrazol-4-yl)thiazole-4-carboxamide, formic acid salt] | 5.40 | 5.45 |  |

More lines, main results first:

| pEC50 (IL-23p19; Homo sapiens, THP-1, 18 h) | pEC50 (IL-23 (p19/p40); Homo sapiens, 18 h) | SMILES | further results |
| --- | --- | --- | --- |
| 7.64 | 7.45 | O=C(Nc1cn([C@H]2C[C@@H](O)C2)nc1-c1cnccn1)c1csc(-c2cn[nH]c2)n1 [II-101, N-(1-((1,3-cis)-3-hydroxycyclobutyl)-3-(pyrazin-2-yl)-1H-pyrazol-4-yl)-2-(1H-pyrazol-4-yl)thiazole-4-carboxamide] |  |
| 6.69 | 5.81 | COCCn1cc(NC(=O)c2ccc(-c3cnn(C(=O)OC(C)(C)COCc4ccc(OC)cc4)c3)o2)c(-c2ccccn2)n1 [Compound I-22, 1-((4-methoxybenzyl)oxy)-2-methylpropan-2-yl 4-(5-((1-(2-methoxyethyl)-3-(pyridin-2-yl)-1H-pyrazol-4-yl)carbamoyl)furan-2-yl)-1H-pyrazole-1-carboxylate] |  |
| 7.21 | 7.26 | CCO[C@H]1C[C@@H](n2cc(NC(=O)c3csc(-c4cn[nH]c4)n3)c(-c3ncccn3)n2)C1 [II-102, N-(1-((1,3-cis)-3-ethoxycyclobutyl)-3-(pyrimidin-2-yl)-1H-pyrazol-4-yl)-2-(1H-pyrazol-4-yl)thiazole-4-carboxamide] |  |
| 6.95 | 6.32 | O=C(Nc1cn([C@H]2C[C@@H](OCC(F)(F)F)C2)nc1-c1ccccn1)c1csc(-c2cn[nH]c2)n1 [II-161, 2-(1H-pyrazol-4-yl)-N-(3-(pyridin-2-yl)-1-((cis)-3-(2,2,2-trifluoroethoxy)cyclobutyl)-1H-pyrazol-4-yl)thiazole-4-carboxamide] |  |
| 7.31 | 7.21 | CC(C)O[C@H]1C[C@@H](n2cc(NC(=O)c3ccc(-c4cn[nH]c4)o3)c(-c3ccccn3)n2)C1 [Compound I-114, N-(1-((1s,3s)-3-isopropoxycyclobutyl)-3-(pyridin-2-yl)-1H-pyrazol-4-yl)-5-(1H-pyrazol-4-yl)furan-2-carboxamide] |  |
| 6.92 | 7.43 | CCO[C@H]1CC[C@H](n2cc(NC(=O)c3csc(-c4cn[nH]c4)n3)c(-c3nnco3)n2)CC1 [II-178, N-(1-((1r,4r)-4-ethoxycyclohexyl)-3-(1,3,4-oxadiazol-2-yl)-1H-pyrazol-4-yl)-2-(1H-pyrazol-4-yl)thiazole-4-carboxamide] |  |
| 7.04 | 6.80 | Cn1cc(NC(=O)c2csc(-c3cnn(C(=O)OC4(C)CC4)c3)n2)c(-c2ccccn2)n1 [II-5, 1-methylcyclopropyl 4-(4-((1-methyl-3-(pyridin-2-yl)-1H-pyrazol-4-yl)carbamoyl)thiazol-2-yl)-1H-pyrazole-1-carboxylate] |  |
| 7.37 | 7.01 | CC(C)(C)NC(=O)N1CC(n2cc(NC(=O)c3ccc(-c4cn[nH]c4)o3)c(-c3ccccn3)n2)C1 [Compound I-84, 3-[4-{5-(1H-Pyrazol-4-yl)furan-2-carboxamido}-3-(pyridine-2-yl)-1H-pyrazol-1-yl]-N-(tert-butyl)azetidine-1-carboxamide, free base] |  |

— patent US10208074B2, “Pyrazole compounds and method for making and using the compounds” (Rigel Pharmaceuticals, Inc., priority 2015, dated 2019)
